In patent publication US20040067593A1, “Electron paramagnetic resonance method for diagnosis of active nephritis” (priority 2000, published 2004):

Key:
Solubility of spin trap = format: physicochemical
[1] = Effect of sulphite on the EPR signal of the DBNBS radical cation (DBNBS reacted with plasma or urine); design: species or system human
Description: The characteristic spectrum of DBNBS-SO3^●− was a 9 line signal with an aN=1.32 mT and aH=0.06 mT (FIG. 8). This was obtained by reacting DBNBS with hydrogen peroxide and horseradish peroxidase. The addition of 10 mM sulphite to the reaction mixture caused the signal to increase by over 100 fold in intensity. The signal could also be obtained by reacting DBNBS with sulphite alone. However, when the DBNBS was reacted with the plasma of patients with renal failure and the urine from a normal individual, only the 3 line signal with an aN=1.32 mT was seen (FIGS. 7 & 9, respectively). The hydrogen hyperfine splitting seen in the spectrum of DBNBS-SO3^●− was absent. […] Therefore, we confirmed that DBNBS-SO3^●− and the DBNBS radical cation generated by renal patients' plasma or normal urine were completely different radicals.
Addition of sulphite to the mixture of DBNBS and plasma or urine decreased the signal height of the DBNBS radical cation. This could affect the determination of the oxidant in biological samples if there was sulphite contamination in the DBNBS preparation or endogenous sulphite in the biological sample itself. Therefore the dose response effect on addition of sulphite to the reaction mixture was investigated. […]

| Compound | solubility compared with DBNBS (Solubility of spin trap) | reduction in the signal height of the DBNBS radical cation ([1]; 0.08 mM of sulphite in the reaction mixture) [%] | reduction in the signal height of the DBNBS radical cation ([1]; final concentration of 0.4 mM sulphite in the reaction mixture) [%] |
| --- | --- | --- | --- |
| O=Nc1c(Cl)cc(S(=O)(=O)O)cc1Cl [DCNBS, 3,5-dichloro-4-nitrosobenzene sulphonate] | better solubility |  |  |
| O=S([O-])[O-].[K+].[K+] [sulphite, dipotassium sulphite] |  | 1.4 | 6.1 |
